This note sets out measurements from US20150368617A1, “METHOD FOR FORMING ENDOTHELIAL CELLS” (Korea Advanced Institute of Science and Technology (KAIST), priority 2012, published 2015).

Holding throughout (type): cell-based, mouse
Assay [1] relates to Flk1+ MPCs. Nature of the assay: EC colony assay. The note with it: 36 hrs; VEGF-A 50 ng/ml, Y27632 10 μM. As to the method:
The Flk1+ MPCs were plated onto Matrigel-coated plate at a density of 4,000 cells/cm^2, and cultured in differentiation medium supplemented with VEGF-A165 (50 ng/ml) and Y27632 (10┌M). At 36 hrs later, the number of CD144+ EC colonies was counted. Clustering of >5 CD144+ ECs was regarded as one EC colony.

Assay [2] has as its system CD144+ ECs. Put plainly: FACS phenotypic analysis of EC and MC markers at day 6.5. Here is the method:
FIGS. 12A to 12B-6. ROCK suppression-induced ECs express EC-specific genes. (FIG. 12A) Diagram of cell preparations for phenotype analyses of EC and MC differentiation. Flk1+ MPCs were incubated with only VEGF-A (50 ng/ml) (Control) and VEGF-A (50 ng/ml) plus Y27632 (10┌ M) (Y72632) for 2 days. (FIG. 12B-1 to FIG. 12B-6) Representative FACS analysis for phenotypic markers in CD144+ cells; pan-endothelial, mural, and arterial-, venous- and lymphatic EC.
Cells were harvested with 0.25% trypsin-EDTA (Invitrogen) or dissociation buffer (Invitrogen) and resuspended in HBSS/2% FBS at 1×10^6 cells per 100┌ l. The cells were incubated for 20 min with the following antibodies: biotin-conjugated anti-mouse Flk1 (clone AVAS12a1, eBioscience), allophycocyanin (APC)-conjugated anti-mouse CD140a (clone APA5, eBioscience), phycoerythrin(PE)-conjugated anti-mouse CD31 (clone 390, eBioscience), Alexa Fluor® 647-conjugated anti-mouse CD144 (clone BV13, eBioscience), PE-conjugated anti-mouse D114 (clone HMD4-1, Biolegend), PE-conjugated anti-mouse Tie2 (clone TEK4, eBioscience), PE-conjugated anti-mouse Endoglin (clone MJ7/18, Biolegend), anti-mouse ICAM2 (clone 3C4, Biolegend), APC-conjugated anti-mouse CD140b (clone APBS, eBioscience), PE-conjugated anti-mouse LYVE1 (clone ALY7, eBioscience), anti-mouse VEGFR3 (goat polyclonal, R&D systems), anti-mouse EphB4 (clone VEB4-7E4, Hycult biotech), and PE-conjugated anti-mouse Notch1 (clone HMN1-12, Biolegend). After washing in HBSS/2% FBS twice, the cells were incubated with the following secondary antibodies: PE-conjugated streptavidin (eBioscience), PE-conjugated anti-rat IgG2a (eBioscience), and FITC-conjugated anti-goat IgG (Invitrogen). Dead cells were excluded by 7-aminoactinomycin D (7-AAD, Invitrogen).

The subject of assay [3] is CD144+ ECs. Put plainly: BrdU/7-AAD cell cycle analysis and BrdU incorporation in differentiating Flk1+ MPCs. Here is the method:
Apoptosis assay was performed as previously described. To determine the cell cycle, BrdU/7-AAD cell cycle analysis was performed according to the manufacturer's instructions (BD Pharmingen™). Briefly, cells were incubated with BrdU (1 mM) for 1 hr, dissociated with dissociation buffer, and stained with anti-CD144 antibody. The cells were then fixed, permeabilized, and fixed once more, followed by 1 hr incubation with DNase I (200 U) at 37┌ C. After incubation with FITC-conjugated anti-BrdU antibody for 20 min at RT, the cells were stained with 7-AAD. The cells were analyzed by FACS Aria II and the data were analyzed using FlowJo software.

Another assay has as its system VYI-ECs. Put plainly: Angiogenesis assay using a microfluidic device. The note with it: 72 hr; co-treatment of Y27632 with VEGF-A. Here is the method: To test the angiogenic property of VYI-ECs, we utilized a microfluidic platform that was modified from the previously described device. Briefly, a poly-dimethylsiloxane (PDMS) based microfluidic platform containing three channels was fabricated with poly-dimethylsiloxane using a soft lithography process. Two empty spaces in between three parallel channels were filled with a mixture of type I collagen (3 mg/ml, rat tail, BD Biosciences) and fibronectin (50 μg/ml, Invitrogen), which together acted as an ECM scaffold. The center channel was coated with fibronectin (10 μg/ml), and was seeded with 40˜50 μl of VYI-EC suspension (1×10^7 cells/ml). The device was tilted vertically for 1 hr to allow the cells to attach onto the sidewall of the scaffold by gravity. The cells were then seeded onto the other sidewall by flipping the device upside down. Cell culture media in the side channels containing VEGF-A (50 ng/ml) or VEGF-A (50 ng/ml) plus Y27632 (10 μM) were exchanged with fresh media every 12 hr. Phase contrast and immunofluorescent images were acquired to analyze the angiogenic sprouting formation of VYI-ECs.

Another assay deals with ICAM2+ ECs. Put plainly: Cell adhesion assay, ICAM2+ ECs. The settings on record: 6 hrs after plating; in the presence of VEGF-A. As to the method: Sorted Flk1+ MPCs or ICAM2+ ECs were plated onto Matrigel coated plates at a density of 10,000 cells/cm^2. Six hrs after plating, non-adherent cells were removed by washing and the cell number of adherent cells was counted following trypsinization. The percentage of adherent cells was calculated as (counted cell number/initial seeded cell number)×100.

For assay [4], the system named is Flk1+ MPCs. Nature of the assay: Immunofluorescence staining of differentiating Flk1+ MPCs (CD144, αSMA, PHH3). Here is the method:
Cultured cells were fixed with 2% paraformaldehyde (PFA) and blocked with 5% goat (or donkey) serum in PBST (0.3% Triton X-100 in PBS) for 1 hr at room temperature (RT). The cells were incubated overnight at 4┌ C with the following primary antibodies: anti-mouse CD144 (clone 11D4.1, BD Pharmingen™), anti-mouse phospho-histone H3 (rabbit polyclonal, Upstate), anti-mouse cTnT (NeoMarkers), Cy3-conjugated anti-┌ SMA (clone 1A4, Sigma), and anti-mouse CD31 (clone 2H8, Chemicon). After washing in PBST 4 times, the cells were incubated for 2 hrs at RT with the following secondary antibodies: Cy3-conjugated anti-rabbit IgG (Jackson ImmunoResearch), Cy3-conjugated anti-hamster IgG (Jackson ImmunoResearch), Cy3-conjugated anti-mouse IgG antibody (Jackson ImmunoResearch) and FITC or Cy3-conjugated anti-rat (Jackson ImmunoResearch). F-actin and nuclei were stained with TRITC-phalloidin (Invitrogen) and 4′,6-diamidino-2-phenylindole (DAPI, Invitrogen), respectively. The cells were then mounted in fluorescent mounting medium (DAKO Corporation).

As for `C[C@@H](N)[C@H]1CC[C@H](C(=O)Nc2ccncc2)CC1` [Y27632], the “number of EC colonies and cell number in each colony” value in the assay on Flk1+ MPCs [1] is “increased”. In the assay on CD144+ ECs [2], the “population of CD144+ ECs expressing pan-endothelial cell surface markers (Flk1, Tie2, endoglin and ICAM2) compared to control” value was around 2.0 fold; the “population of CD144+ ECs that express D114 (arterial)” value worked out at 4.6 fold; the “population of CD144+ ECs that express EphB4 (venous)” value was 2.4 fold; the “population of CD144+ ECs that express LYVE-1 (lymphatic)” value is listed as 2.1 fold. Besides, in the assay on CD144+ ECs [2], the “population of CD144+ ECs that express Notch1 (arterial)” value was found to be 2.4 fold; the “population of CD144+ ECs that express VEGFR3 (lymphatic)” value worked out at 3.8 fold; the “populations of cells expressing αSMA and CD140b” value is on record as “markedly reduced”. Also, the “increase of BrdU+/CD144+ EC population” value with CD144+ ECs [3] (12 hrs) is 1.7 fold. In addition, in the assay with CD144+ ECs [3] (36 hrs), the “increase of BrdU+/CD144+ EC population” value is on record as 2.7 fold, the “increase of population of CD144+ ECs in S phase compared to control” value is listed as 1.23 fold and the “reduction of CD144+ ECs in G0/G1 phase compared to control” value is on record as 12%. Besides, in the assay with VYI-ECs, the “increase of length of sprouting CD144+ VYI-ECs” value turned out to be 1.7 fold. Also, the “adhesion of ICAM2+ ECs onto the plate” value in the assay with ICAM2+ ECs was 1.3 fold. Also, in the assay with Flk1+ MPCs [4] (36 hrs, Y27632 10 μM plus VEGF-A), the “population of PHH3+/CD144+ ECs compared to control” value was found to be 3.7 fold. Besides, in the assay on Flk1+ MPCs [4] (day 6.5, Y27632 10 μM), the “number of surrounding αSMA+MCs” value is on record as “decreased”; the “size and number of CD144+ EC colonies” value was “increased”.
